Experimental data: ChEMBL document CHEMBL1201862, “PubChem BioAssay data set” (2004)
Activity calls are given as the source filed them.

Assays:
HEK293 [1] = test: cells; details: Homo sapiens
HEK293 [2] = test: cells; details: Homo sapiens; remark: listed apart in the source
Cytochrome P450 2D6 = Cytochrome P450 2D6 (Homo sapiens, UniProt P10635);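 further: CYP2D6 member of a cytochrome P450 panel assay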
Nonstructural protein 1 = Nonstructural protein 1 (Influenza A virus, UniProt Q194T2); type: functional, Influenza A virus (A/California/07/2009(H1N1))
HEK293 [3] = test: inhibition of NOD1-driven NF-kB reporter – cell-based, luminescence, uHTS, primary screen (AID 1578); type: functional; details: Homo sapiens
HEK293 [4] = test: cells; type: functional, cell-based; details: Homo sapiens
HEK293 [5] = test: NOD2 signaling inhibitors in MDP-stimulated cells, cell-based, uHTS, luminescence (AID 2001); type: functional; details: Homo sapiens
HEK293 [6] = test: cells; type: functional, cell-based; details: Homo sapiens; remark: listed apart in the source
HEK293 [7] = test: cells; type: functional, cell-based; details: Homo sapiens; remark: listed apart in the source
[8] = target: Nucleotide-binding oligomerization domain-containing protein 2 (Homo sapiens, UniProt Q9HC29); test: inhibition of NOD2-driven NF-kB reporter – cell-based, luminescence, uHTS, HEK293 (AID 1566); type: functional
[9] = target: T1, DNA repair protein RAD52 homolog (Homo sapiens, UniProt P43351); type: functional, biochemical
T1 sequence (P43351 whole entry): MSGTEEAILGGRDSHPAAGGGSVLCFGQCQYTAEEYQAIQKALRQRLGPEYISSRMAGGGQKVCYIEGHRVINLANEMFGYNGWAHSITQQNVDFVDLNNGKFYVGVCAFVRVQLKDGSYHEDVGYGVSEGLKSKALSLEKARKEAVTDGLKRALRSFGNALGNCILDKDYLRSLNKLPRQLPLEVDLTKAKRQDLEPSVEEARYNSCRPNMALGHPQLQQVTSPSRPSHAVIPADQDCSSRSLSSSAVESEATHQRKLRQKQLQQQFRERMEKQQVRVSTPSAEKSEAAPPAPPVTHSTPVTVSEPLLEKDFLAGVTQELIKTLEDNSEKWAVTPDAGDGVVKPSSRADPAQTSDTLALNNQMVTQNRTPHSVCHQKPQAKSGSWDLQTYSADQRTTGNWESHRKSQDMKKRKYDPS

A-375 = test: proliferation inhibition in MITF-low A375 cells – cell-based, cherry-pick samples, set 2, counter-screen for MITF modulator project, dose response (AID 540335); type: functional; details: Homo sapiens
[10] = target: ATP-dependent molecular chaperone HSP82 (Candida albicans (strain WO-1) (Yeast), UniProt C4YTQ8); test: steroid-induced GRE reporter decrease in yeast – S. cerevisiae, luminescence, Hsp90 inhibitor project, dose response (AID 2400); type: functional, cell-based;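 further: beta-galactosidase luminescence from glucocorticoid response element reporter as proxy for Hsp90 function; inhibitor potency where signal loss means Hsp90 inhibition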
[11] = target: T2, Microphthalmia-associated transcription factor (Homo sapiens, UniProt O75030); test: reducers of TRPM1 reporter luminescence, concentration series – cell-based, SK-MEL-5, cherry-picked, set 3, MITF inhibitor project, dose response (AID 493073); type: functional;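 further: SK-MEL-5 melanoma cells with luciferase driven by the MITF target TRPM1 promoter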
T2 sequence (O75030 whole entry): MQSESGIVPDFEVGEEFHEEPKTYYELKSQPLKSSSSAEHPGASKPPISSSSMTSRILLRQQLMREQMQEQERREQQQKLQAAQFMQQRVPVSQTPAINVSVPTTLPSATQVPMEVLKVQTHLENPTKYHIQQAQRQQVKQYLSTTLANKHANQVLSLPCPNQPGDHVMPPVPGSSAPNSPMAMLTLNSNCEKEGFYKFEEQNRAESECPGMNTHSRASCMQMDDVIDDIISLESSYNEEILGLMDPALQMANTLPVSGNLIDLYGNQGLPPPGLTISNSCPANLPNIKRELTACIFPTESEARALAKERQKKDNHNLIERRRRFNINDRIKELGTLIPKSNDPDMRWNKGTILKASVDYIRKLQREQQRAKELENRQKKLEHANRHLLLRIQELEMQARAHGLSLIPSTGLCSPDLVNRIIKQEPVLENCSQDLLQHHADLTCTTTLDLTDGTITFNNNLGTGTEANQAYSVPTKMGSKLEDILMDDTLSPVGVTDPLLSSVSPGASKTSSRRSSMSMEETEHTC

[12] = Counterscreen for activators of the function of SWI/SNF related, matrix associated, actin dependent regulator of chromatin, subfamily a, member 2 (SMARCA2, BRM): Luminescence-based cell-based high throughput dose response assay to identify non-selective compounds using the VP16 reporter assay.; type: functional
[13] = target: T3, Serine/threonine-protein phosphatase (Candida dubliniensis (strain CD36 / CBS 7987 / NCPF 3949 / NRRLY-17841) (Yeast), UniProt B9W6M3); test: blockers of CaCl2-induced CDRE-lacZ signaling – S. cerevisiae, luminescence, secondary, dose response (AID 2388); type: functional, cell-based;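 further: yeast reporter cells carrying a calcineurin-responsive lacZ construct stimulated with calcium chloride; luminescent beta-galactosidase reporter signal in whole cells rather than isolated phosphatase activity; potency for inhibition where a drop in reporter signal means calcineurin blockade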
T3 sequence (B9W6M3 whole entry): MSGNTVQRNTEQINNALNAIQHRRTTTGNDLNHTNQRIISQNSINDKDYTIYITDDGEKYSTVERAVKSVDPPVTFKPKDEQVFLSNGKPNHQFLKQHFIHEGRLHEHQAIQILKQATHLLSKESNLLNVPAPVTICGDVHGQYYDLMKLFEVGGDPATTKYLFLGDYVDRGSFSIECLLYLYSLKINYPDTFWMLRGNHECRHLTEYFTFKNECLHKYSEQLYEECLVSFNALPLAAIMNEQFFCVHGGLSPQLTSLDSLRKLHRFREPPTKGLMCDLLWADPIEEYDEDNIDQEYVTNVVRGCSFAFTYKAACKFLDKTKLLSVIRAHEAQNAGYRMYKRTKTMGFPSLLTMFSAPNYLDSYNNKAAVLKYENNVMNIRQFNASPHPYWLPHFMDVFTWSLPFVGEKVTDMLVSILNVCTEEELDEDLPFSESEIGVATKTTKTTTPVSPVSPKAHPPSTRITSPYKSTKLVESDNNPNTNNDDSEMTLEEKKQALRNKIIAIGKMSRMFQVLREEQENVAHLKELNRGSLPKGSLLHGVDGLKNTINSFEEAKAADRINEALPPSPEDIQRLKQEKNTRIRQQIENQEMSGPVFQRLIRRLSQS

[14] = NIH3T3 cell viability loss – ATP luminescence, mouse fibroblasts, counter-screen, dose response (AID 2010); type: functional, cell-based;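 further: cells exposed to compound for about 90 hours before reading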
INS1 = test: INS-1E survival protection against cytokine death – cell-based, luminescence, retest, dose response (AID 449756); type: functional; details: Rattus norvegicus;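 further: cell death triggered by IL-1 beta plus TNF-alpha plus IFN-gamma mixture; protective hits raise ATP signal compared with cytokine alone wells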
[15] = target: SWI/SNF-related matrix-associated actin-dependent regulator of chromatin subfamily A member 2 (Homo sapiens, UniProt P51531); test: Luminescence-based cell-based high throughput dose response assay to identify activators of the function of SWI/SNF related, matrix associated, actin dependent regulator of chromatin, subfamily a, member 2 (SMARCA2, BRM).; type: functional
[16] = Trypanosoma cruzi growth suppression in host cells – NIH3T3 host cells, beta-gal luminescence, confirmation (AID 2044); type: functional, cell-based;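 further: intracellular parasites grown in NIH/3T3 mouse fibroblasts as host cells; luminescent beta-galactosidase reporter signal from transgenic T. cruzi replicating inside host cells; inhibitors lower the luminescence signal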
[17] = fluconazole-exposed Candida albicans growth modulators – fluorescence, retest, confirmation (AID 2467); type: functional, cell-based
[18] = NIH-3T3 fibroblast cytotoxicity, dose response, cytotoxicity control, cell-based, fluorescence, Alamar Blue, secondary assay (AID 2327); type: functional;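 further: NIH-3T3 mouse fibroblasts cultured with fluconazole at 8 µg/mL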
Trypsin = Trypsin (Sus scrofa, UniProt P00761); test: trypsin protease activity blockade – biochemical, quenched peptide fluorescence, cherry-pick, selectivity assay for Rce1 protease inhibitor project, dose response (AID 488789)
CAAX prenyl protease 2 [19] = target: CAAX prenyl protease 2 (Homo sapiens, UniProt Q9Y256); test: inhibition of Ras-converting CAAX protease Rce1 – biochemical, yeast membranes, quenched-peptide fluorescence, cherry-pick, dose response (AID 588849)
CAAX prenyl protease 2 [20] = target: CAAX prenyl protease 2 (Saccharomyces cerevisiae S288c, UniProt Q03530); type: biochemical
Escherichia coli = test: microbe, parasite or virus in culture
Estrogen receptor = target: T4, Estrogen receptor (Homo sapiens, UniProt P03372);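 further: potency for inhibiting coactivator peptide recruitment to the receptor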
T4 sequence (P03372 whole entry): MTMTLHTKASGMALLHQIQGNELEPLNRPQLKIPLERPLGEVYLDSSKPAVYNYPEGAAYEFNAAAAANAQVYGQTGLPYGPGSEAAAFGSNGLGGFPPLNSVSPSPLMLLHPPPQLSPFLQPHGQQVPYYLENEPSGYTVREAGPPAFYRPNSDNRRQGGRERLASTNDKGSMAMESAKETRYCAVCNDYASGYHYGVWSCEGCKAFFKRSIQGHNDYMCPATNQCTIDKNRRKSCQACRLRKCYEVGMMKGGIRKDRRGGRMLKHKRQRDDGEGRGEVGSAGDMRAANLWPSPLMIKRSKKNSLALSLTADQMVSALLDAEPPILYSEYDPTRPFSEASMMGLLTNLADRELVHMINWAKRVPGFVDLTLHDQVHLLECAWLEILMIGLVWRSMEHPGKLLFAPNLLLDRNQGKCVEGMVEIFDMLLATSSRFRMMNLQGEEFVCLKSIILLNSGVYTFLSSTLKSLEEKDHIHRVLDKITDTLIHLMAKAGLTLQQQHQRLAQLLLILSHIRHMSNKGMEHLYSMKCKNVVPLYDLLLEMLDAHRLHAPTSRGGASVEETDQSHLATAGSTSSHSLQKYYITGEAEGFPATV

Sequence of Cytochrome P450 2D6 (P10635 whole entry): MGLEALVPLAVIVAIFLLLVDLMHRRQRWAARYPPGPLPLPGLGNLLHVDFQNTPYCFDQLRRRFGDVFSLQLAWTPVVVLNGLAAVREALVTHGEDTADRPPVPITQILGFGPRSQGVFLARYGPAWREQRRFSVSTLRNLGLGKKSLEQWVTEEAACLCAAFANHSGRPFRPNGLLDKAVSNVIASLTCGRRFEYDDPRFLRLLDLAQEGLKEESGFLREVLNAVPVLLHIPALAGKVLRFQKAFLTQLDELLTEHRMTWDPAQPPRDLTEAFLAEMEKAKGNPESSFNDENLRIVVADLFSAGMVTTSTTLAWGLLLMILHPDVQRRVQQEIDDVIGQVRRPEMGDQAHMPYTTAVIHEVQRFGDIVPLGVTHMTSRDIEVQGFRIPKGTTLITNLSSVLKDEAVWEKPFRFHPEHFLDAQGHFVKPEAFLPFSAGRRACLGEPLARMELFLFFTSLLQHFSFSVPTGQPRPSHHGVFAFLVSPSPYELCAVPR
Sequence of Nonstructural protein 1 (Q194T2 whole entry): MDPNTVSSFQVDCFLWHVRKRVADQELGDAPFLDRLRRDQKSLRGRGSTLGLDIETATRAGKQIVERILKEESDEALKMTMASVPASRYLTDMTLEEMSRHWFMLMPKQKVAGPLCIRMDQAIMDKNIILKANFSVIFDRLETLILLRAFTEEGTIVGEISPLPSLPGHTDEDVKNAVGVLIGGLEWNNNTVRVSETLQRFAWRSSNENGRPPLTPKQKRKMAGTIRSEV
Sequence of CAAX prenyl protease 2 (Saccharomyces cerevisiae S288c, UniProt Q03530) (Q03530 whole entry): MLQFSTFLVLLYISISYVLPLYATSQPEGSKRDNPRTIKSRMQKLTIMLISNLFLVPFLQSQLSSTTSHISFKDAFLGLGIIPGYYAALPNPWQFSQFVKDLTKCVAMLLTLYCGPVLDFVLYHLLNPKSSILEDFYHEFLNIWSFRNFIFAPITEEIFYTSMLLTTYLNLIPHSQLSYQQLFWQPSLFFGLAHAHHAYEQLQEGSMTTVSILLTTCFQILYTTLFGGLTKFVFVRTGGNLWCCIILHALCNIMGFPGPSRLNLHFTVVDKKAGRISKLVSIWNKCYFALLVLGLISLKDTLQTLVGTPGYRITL
Sequence of Trypsin (P00761 whole entry): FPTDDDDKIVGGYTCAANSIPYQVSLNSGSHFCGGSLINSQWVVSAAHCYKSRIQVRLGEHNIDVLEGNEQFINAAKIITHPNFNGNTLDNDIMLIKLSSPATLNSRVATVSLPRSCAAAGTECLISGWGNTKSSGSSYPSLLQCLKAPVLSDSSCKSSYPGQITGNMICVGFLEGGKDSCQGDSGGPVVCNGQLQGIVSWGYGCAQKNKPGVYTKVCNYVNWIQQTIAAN
Sequence of CAAX prenyl protease 2 (Homo sapiens, UniProt Q9Y256) (Q9Y256 whole entry): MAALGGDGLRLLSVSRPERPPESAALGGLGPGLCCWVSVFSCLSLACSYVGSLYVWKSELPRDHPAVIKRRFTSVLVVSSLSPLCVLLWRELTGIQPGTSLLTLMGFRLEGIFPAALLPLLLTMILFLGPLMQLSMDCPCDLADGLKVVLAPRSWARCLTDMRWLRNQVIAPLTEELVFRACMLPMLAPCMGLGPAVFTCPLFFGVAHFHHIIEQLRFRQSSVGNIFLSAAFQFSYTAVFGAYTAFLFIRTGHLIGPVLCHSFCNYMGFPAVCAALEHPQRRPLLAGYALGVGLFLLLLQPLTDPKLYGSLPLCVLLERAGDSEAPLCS
Sequence of ATP-dependent molecular chaperone HSP82 (C4YTQ8 whole entry): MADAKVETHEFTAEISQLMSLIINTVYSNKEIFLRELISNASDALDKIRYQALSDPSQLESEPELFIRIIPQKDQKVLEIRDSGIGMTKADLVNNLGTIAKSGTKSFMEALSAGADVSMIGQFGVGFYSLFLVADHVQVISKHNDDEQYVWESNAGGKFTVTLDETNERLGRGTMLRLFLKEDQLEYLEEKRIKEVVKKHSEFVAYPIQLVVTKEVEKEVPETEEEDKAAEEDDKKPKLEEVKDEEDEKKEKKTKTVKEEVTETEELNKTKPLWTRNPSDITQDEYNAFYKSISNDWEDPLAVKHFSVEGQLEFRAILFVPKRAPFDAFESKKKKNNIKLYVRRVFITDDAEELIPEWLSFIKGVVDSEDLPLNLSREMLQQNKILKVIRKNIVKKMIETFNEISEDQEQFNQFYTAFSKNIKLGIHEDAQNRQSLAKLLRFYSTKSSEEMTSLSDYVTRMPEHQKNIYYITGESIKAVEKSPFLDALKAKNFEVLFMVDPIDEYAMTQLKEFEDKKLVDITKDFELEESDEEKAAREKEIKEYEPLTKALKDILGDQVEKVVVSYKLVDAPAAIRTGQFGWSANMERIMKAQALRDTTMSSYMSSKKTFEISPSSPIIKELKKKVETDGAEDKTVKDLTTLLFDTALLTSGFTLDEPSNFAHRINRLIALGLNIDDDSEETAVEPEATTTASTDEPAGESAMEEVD
Sequence of Nucleotide-binding oligomerization domain-containing protein 2 (Q9HC29 whole entry, the tested form may be a part): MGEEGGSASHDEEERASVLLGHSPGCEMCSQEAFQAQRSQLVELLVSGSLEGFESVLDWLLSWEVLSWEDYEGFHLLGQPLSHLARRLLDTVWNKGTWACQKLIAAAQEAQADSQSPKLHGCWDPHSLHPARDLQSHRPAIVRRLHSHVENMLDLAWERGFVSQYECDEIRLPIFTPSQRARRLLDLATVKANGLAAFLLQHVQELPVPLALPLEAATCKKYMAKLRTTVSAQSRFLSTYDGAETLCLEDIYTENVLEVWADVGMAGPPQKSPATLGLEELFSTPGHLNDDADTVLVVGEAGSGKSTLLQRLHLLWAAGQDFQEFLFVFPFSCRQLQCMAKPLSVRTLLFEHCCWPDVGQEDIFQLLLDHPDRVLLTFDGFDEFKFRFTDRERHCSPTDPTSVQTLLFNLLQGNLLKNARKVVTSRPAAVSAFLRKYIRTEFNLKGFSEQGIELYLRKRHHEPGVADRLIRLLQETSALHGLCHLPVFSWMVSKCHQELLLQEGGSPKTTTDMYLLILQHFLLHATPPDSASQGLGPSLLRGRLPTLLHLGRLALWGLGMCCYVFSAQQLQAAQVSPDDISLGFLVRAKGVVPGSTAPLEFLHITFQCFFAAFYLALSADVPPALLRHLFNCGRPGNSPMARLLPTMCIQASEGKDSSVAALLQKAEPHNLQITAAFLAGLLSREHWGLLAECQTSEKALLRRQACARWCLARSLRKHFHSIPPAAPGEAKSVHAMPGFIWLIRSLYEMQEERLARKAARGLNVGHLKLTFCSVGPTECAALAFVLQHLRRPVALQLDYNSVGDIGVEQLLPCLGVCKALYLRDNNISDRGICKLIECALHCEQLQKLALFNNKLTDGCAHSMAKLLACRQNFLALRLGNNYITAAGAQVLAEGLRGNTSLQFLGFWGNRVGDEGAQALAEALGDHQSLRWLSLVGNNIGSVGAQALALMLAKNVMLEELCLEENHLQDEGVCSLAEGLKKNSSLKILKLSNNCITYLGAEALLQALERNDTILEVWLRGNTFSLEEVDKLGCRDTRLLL
Sequence of SWI/SNF-related matrix-associated actin-dependent regulator of chromatin subfamily A member 2 (P51531 whole entry): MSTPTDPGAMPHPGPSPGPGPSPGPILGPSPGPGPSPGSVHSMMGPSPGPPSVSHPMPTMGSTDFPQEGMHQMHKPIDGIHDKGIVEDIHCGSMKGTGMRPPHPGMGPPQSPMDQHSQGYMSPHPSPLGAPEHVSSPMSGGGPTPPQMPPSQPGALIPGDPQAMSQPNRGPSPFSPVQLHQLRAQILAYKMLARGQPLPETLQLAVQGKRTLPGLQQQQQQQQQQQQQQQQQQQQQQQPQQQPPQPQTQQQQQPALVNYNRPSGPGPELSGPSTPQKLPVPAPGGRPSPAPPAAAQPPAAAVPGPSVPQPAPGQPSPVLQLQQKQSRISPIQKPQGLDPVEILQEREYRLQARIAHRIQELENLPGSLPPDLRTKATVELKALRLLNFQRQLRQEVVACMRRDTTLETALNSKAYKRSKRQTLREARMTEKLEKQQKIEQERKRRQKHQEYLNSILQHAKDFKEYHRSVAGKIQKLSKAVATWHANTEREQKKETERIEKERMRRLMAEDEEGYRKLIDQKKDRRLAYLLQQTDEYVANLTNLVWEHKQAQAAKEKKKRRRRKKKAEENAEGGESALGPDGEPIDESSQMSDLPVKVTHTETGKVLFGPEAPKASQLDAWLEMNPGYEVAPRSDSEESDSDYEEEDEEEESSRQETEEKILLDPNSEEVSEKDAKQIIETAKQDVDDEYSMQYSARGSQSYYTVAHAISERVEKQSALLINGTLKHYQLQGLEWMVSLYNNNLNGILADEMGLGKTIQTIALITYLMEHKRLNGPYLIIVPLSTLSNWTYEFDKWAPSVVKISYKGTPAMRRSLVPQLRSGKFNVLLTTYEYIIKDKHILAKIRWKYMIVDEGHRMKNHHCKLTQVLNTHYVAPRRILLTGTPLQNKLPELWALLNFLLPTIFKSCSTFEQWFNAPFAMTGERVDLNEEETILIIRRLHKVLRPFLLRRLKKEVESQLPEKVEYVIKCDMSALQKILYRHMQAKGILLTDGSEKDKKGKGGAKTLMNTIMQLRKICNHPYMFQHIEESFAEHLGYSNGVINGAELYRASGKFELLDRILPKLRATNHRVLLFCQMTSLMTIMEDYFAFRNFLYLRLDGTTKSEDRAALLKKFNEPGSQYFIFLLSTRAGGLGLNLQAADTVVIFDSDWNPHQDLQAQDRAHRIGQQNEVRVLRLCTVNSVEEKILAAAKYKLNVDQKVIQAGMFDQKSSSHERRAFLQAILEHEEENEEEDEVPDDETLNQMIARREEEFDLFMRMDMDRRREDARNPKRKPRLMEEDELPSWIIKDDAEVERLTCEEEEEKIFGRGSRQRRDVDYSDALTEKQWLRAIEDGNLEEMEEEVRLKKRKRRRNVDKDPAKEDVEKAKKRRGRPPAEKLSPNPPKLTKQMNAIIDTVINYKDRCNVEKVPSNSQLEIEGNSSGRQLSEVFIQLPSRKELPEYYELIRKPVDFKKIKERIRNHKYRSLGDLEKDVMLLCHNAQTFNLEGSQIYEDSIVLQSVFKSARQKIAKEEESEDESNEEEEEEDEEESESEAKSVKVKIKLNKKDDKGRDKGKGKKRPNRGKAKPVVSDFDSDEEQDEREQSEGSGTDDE

Which results are given for `N#Cc1c(-c2ccccc2)cc(C2CC2)nc1N`?
EC50 (HEK293 [1]): > 59.7 µM (inactive); EC50 (HEK293 [2]): > 59.7 µM (inactive)

For `C#CCCCO/N=C1/[C@H]2O[C@@H]2[C@@H](O)[C@H]2[C@H]1CCn1c(=O)n(C)c(=O)n12`, which AC50 (Cytochrome P450 2D6) is on record?
Its AC50 is “inconclusive”.

Which IC50 (Nonstructural protein 1) does the source give for `CCCn1c(C)cc(C(=O)COc2ccc(C)nc2[N+](=O)[O-])c1C` here?
The IC50 was > 100 µM (active).

What about the EC50 (HEK293 [3]) of the same compound?
The EC50 was > 20 µM (inactive).

What about the IC50 (HEK293 [4]) of the same compound?
Its IC50 is 3.81 µM (active).

What about the IC50 (HEK293 [5]) of the same compound?
The IC50 was > 20 µM (inactive).

What about the IC50 (HEK293 [6]) of the same compound?
The IC50 was > 20 µM (inactive).

What about the IC50 (HEK293 [7]) of the same compound?
Its IC50 is > 20 µM (inactive).

What about the EC50 [8] of the same compound?
Its EC50 is 7.64 µM (active).

With `CC(=O)Nc1ccc(Nc2c3ccccc3nc3ccccc23)cc1` as the compound, how does the AC50 [9] read?
The AC50 was 2.21 µM (active).

What about the AC50 (A-375) of the same compound?
Its AC50 is 13.8 µM (active).

What about the EC50 [10] of the same compound?
The EC50 was > 150 µM (inactive).

What about the AC50 [11] of the same compound?
Its AC50 is 4.9 µM (active).

And the EC50 [12]?
Its EC50 is > 91.1 µM (inactive).

What about the EC50 [13] of the same compound?
Its EC50 is > 180 µM (inactive).

What about the EC50 [14] of the same compound?
Its EC50 is 536 nM (active).

What about the AC50 (INS1) of the same compound?
The AC50 was 3.71 µM (active).

And the EC50 [15]?
The EC50 was > 91.1 µM (inactive).

What about the EC50 [16] of the same compound?
The EC50 was 556 nM (active).

And the EC50 [17]?
The EC50 was 1.32 µM (active).

And the EC50 [18]?
Its EC50 is 10.5 µM (active).

Which AC50 (Trypsin) does the source give for `COc1ccc(C[C@H]2c3cc(O)c(OC)cc3CC[N+]2(C)[O-])cc1O` (some centres not stated) here?
The AC50 was 13.9 µM (active).

What about the AC50 (CAAX prenyl protease 2 [19]) of the same compound?
The AC50 was 2.8 µM (active).

And the AC50 (CAAX prenyl protease 2 [20])?
Its AC50 is 7.82 µM (active).

With `Cc1occc1C(=O)NCc1cccc(CNC(=O)c2ccoc2C)c1` as the compound, how does the AC50 (Escherichia coli) read?
Its AC50 is 21.6 µM (active).

What about the IC50 (Estrogen receptor) of the same compound?
Its IC50 is 19.7 µM (active).
